Data on 26 compounds can be found in EPA's ToxValDB 9.5.

Broadly, the NOAEL is the highest dose or exposure tested at which no adverse effect was seen. By LOAEL is commonly meant the lowest dose or exposure tested at which an adverse effect was seen.

Molecules are shown by their SMILES.

For data set [1], the system named is Rattus norvegicus. As to conditions: oral.
Data set [2] relates to Rattus norvegicus. As to conditions: oral, gavage; for LOAEL / NOAEL: Sprague-Dawley.
The mark [3] stands for this setting: subchronic, gavage, M, Sprague-Dawley.
The mark [4] stands for this setting: subchronic, gavage, M, Sprague-Dawley, Clinical Observation: Salivation + Body Weight Changes: Gain increase + Food Consumption: increase + Hematology: Plt increase, Eosinophil% ….
Where [5] appears, read: subchronic, gavage, M, Sprague-Dawley, Clinical Observation: Excessive salivation Decreased spontaneous locomotors Decreased respiration rate Incomplete eyelid opening + ….
The mark [6] stands for this setting: short-term, duration: 28 days, gavage, M, Sprague-Dawley, Clinical Observation: Yellow-orange urine SalivationSpontaneous locomotion decrease, Respiratory rate decrease, Soft stool + Body Weight ….
[7] abbreviates: short-term, duration: 28 days, gavage, F, Sprague-Dawley, Functional Observational Battery: Locomotor activity decrease.
Setting [8] is: short-term, duration: 28 days, gavage, M, Sprague-Dawley, Functional Observational Battery: Locomotor activity decrease.
Setting [9] is: reproduction developmental, duration: 4 weeks, M, Rjhan:SD, generation: P0, P0: Whole Body: Clinical Observations.
Where [10] appears, read: reproduction developmental, duration: 4 weeks, M, generation: P0, P0: General Toxicity: Whole Body: Body Weight + P0: General Toxicity: Whole Body: Clinical Observations + P0: General Toxicity: Whole Body: ….
Where [11] appears, read: reproduction developmental, duration: 6 weeks, F, Rjhan:SD, generation: P0, P0: Whole Body: Clinical Observations.
[12] abbreviates: reproduction developmental, duration: 54 days, F, generation: P0, P0: General Toxicity: Whole Body: Body Weight + P0: General Toxicity: Whole Body: Clinical Observations + P0: General Toxicity: Whole Body: ….

For the compound `O=S(=O)(O)c1cc(Cl)cc(N=Nc2ccc3c(O)cccc3c2O)c1[O-].[Na+]`, the NOEL in data set [1] (short-term, duration: 28 days, gavage, M/F, Crl:CD(SD), Deaths + Clinical Observation: Loose stool Locomotor activity increase + Body Weight Changes: decrease + Water Consumption: increase + …) was less than 40 mg/kg-day.

With `COc1cccc(OC)c1C(=O)P(=O)(CC(C)CC(C)(C)C)C(=O)c1c(OC)cccc1OC` (stereo not given), the NOEL in data set [1] (short-term, duration: 28 days, gavage, M/F, Blood Chemistry: CHE decrease + Absolute Organ Weight: Liver increase + Histopathology: Skin-Proliferation, epidermis, horny layer Skin-…) is 5 mg/kg-day.

As to `CC1(C)C(C=CC(=O)OC(C(F)(F)F)C(F)(F)F)C1C(=O)OC(C#N)c1cccc(Oc2ccccc2)c1` (stereo not given), in data set [1] (short-term, duration: 28 days, gavage, M/F, Deaths + Clinical Observation: Salivation + Urinalysis: Specific gravity decrease, pH decrease + Blood Chemistry: GPT increase, BUN …), the NOEL is less than 5 mg/kg-day.

Take `COc1c(N2CCNC(C)C2)c(F)cc2c(=O)c(C(=O)O)cn(C3CC3)c12.O` (stereo not given): the NOAEL in data set [1] (chronic, duration: 182 days, gavage, M/F, Wistar, Clinical Observation: Loss of increaseper incisor + Body Weight Changes: decrease + Urinalysis: Ca increase + Hematology: SEG decrease, …) was 30 mg/kg-day.

Consider `CCn1cc(C(=O)O)c(=O)c2cc(F)c(N3CCNCC3)nc21.CCn1cc(C(=O)O)c(=O)c2cc(F)c(N3CCNCC3)nc21.CCn1cc(C(=O)O)c(=O)c2cc(F)c(N3CCNCC3)nc21.O.O`, for which the NOEL in data set [1] (short-term, duration: 28 days, gavage, M/F, Sprague-Dawley, Clinical Observation: Loose stool + Body Weight Changes: Body weight gain decrease + Food Consumption: decrease + Urinalysis: White crystal…) was 120 mg/kg-day.

Take `CCOCCc1ccc(OCC(OC)OC)c(C)c1C`: the NOEL in data set [1] (short-term, duration: 28 days, gavage, M/F, Clinical Observation: Salivation Locomotor activity decrease + Blood Chemistry: GOT increase, GPT increase, gamma-GTP increase, T-CHO …) was less than 40 mg/kg-day.

With `O=[N+]([O-])c1cc(Cl)c(/N=N/c2ccc3c(c2)c2ccccc2n3CCO)c(Cl)c1`, in data set [1] (short-term, duration: 28 days, gavage, M/F, Body Weight Changes: Body weight gain decrease + Food Consumption: decrease + Water Consumption: increase + Urinalysis: Urine volume …), the NOEL turned out to be 140 mg/kg-day.

Regarding `CCCC[B-](c1ccccc1)(c1ccccc1)c1ccccc1.CCN(CC)c1ccc(C(=C/C=C/C(=C2C=CC(=[N+](CC)CC)C=C2)c2ccc(N(CC)CC)cc2)c2ccc(N(CC)CC)cc2)cc1`, the NOEL in data set [1] (short-term, duration: 28 days, gavage, M/F, Blood Chemistry: GPT increase, Ch E decrease + Organ Weight: Kidney decrease, Adrenal decrease + Necropsy: Adrenal- Reddish brown + …) amounted to 30 mg/kg-day.

In the case of `CC(O)C(=O)[O-].[Na+]` (racemic) [Sodium DL-lactate], in data set [1] (subchronic, duration: 42 days, gavage, M, CD(SD), Thyroid Hormone: T4 increase, TSH increase + Histopathology: Stomach-Hyperplasia, squamous, limiting ridge), the NOEL was 100 mg/kg-day.

In data set [1] (setting [3]), `O=S(=O)(c1cc(Br)c(OCC(Br)CBr)c(Br)c1)c1cc(Br)c(OCC(Br)CBr)c(Br)c1` (stereo not given) [1,1'-Sulfonylbis[3,5-dibromo-4-(2,3-dibromopropoxy)benzene]] yielded an NOAEL of 1000 mg/kg-day and an NOEL of 1000 mg/kg-day.

`CC(C)(O)C(Cl)(Cl)Cl` [1,1,1-Trichloro-2-methyl-2-propanol]: in data set [1] (subchronic, gavage, M, Sprague-Dawley, Clinical Observation: Staggering gait + Functional Observational Battery: Grip strength decrease, Locomotor activity decrease + Food …), the NOEL is less than 10 mg/kg-day.

Consider `CN(C)CCN(C)CCN(C)C` [1,1,4,7,7-Pentamethyldiethylenetriamine], for which the NOEL in data set [1] (subchronic, gavage, M, Sprague-Dawley, Body Weight Changes: decrease200 + Blood Chemistry: Alb decrease, IP increase + Relative Organ Weight: Liver increase + Histopathology: "…) worked out at 40 mg/kg-day.

In data set [1] (subchronic, gavage, M, Sprague-Dawley, Blood Chemistry: AST increase, ALT increase, TP decrease, A/G increase, PL increase, K increase), `c1ccc2n[nH]nc2c1` [1,2,3-Benzotriazole] gave an NOEL of less than 30 mg/kg-day.

Regarding `Clc1ccccc1NNc1ccccc1Cl` [1,2-Bis(2-chlorophenyl)hydrazine], the NOEL in data set [1] (subchronic, gavage, M, Sprague-Dawley, Body Weight Changes: decrease(trend) + Hematology: Hgb decrease, RET increase(trend) + Blood Chemistry: T-CHO increase(trend) + Relative …) was 40 mg/kg-day.

For `CC(C)(C)c1cc(C(C)(C)C)cc(C(C)(C)C)c1` [1,3,5-Tri-tert-butylbenzene], in data set [1] (setting [4]), the LOAEL is 50 mg/kg-day, the LOEL was found to be 50 mg/kg-day, the no observed adverse effect level (NOAEL) was 10 mg/kg-day and the NOEL was found to be 10 mg/kg-day.

As to `Nc1ccc(Oc2cccc(Oc3ccc(N)cc3)c2)cc1` [1,3-Phenylenedi(4-aminophenyl ether)], in data set [1] (short-term, duration: 28 days, gavage, M/F, Deaths + Clinical Observation: Piloerection Abnormal distention Lethargy Loss of hair + Body Weight Changes: Weight gain decrease + Food …), the NOEL is 10 mg/kg-day.

As for `SCC1CSC(CS)CS1` (stereo not given) [1,4-Dithiane-2,5-dimethanethiol], the NOEL in data set [1] (short-term, duration: 28 days, gavage, M/F, Clinical Observation: Salivation Ataxic gait Locomotor activity decrease + Body Weight Changes: Body weight gain decrease + Food Consumption…) was found to be 20 mg/kg-day.

Turning to `CC(C)(C)Oc1ccc(Cl)cc1` [1-Chloro-4-tert-butoxybenzene], in data set [1] (setting [5]), the no observed adverse effect level (NOAEL) is 100 mg/kg-day and the NOEL worked out at 20 mg/kg-day.

In the case of `CCCCCCCCCCCCCCCCCCCCCCN(C)C` [1-Docosanamine, N,N-dimethyl-], in data set [1] (subchronic, gavage, M, Sprague-Dawley, Body Weight Changes: decrease + Blood Chemistry: AST increase, ALT increase, Alb increase, A/G increase, ALP decrease + Necropsy: Mesentric …), the NOEL came to 0.5 mg/kg-day.

For the compound `C=COCC(CC)CCCC` (stereo not given) [1-Ethenoxy-2-ethylhexane], the NOEL in data set [1] (short-term, duration: 28 days, gavage, M/F, Sprague-Dawley, Urinalysis: Occult blood increase + Blood Chemistry: ALP increase, Cho increase, PL increase + Relative Organ Weight: Liver increase, …) stood at 8 mg/kg-day.

With `COc1ccccc1[N+](=O)[O-]` [1-Methoxy-2-nitrobenzene], in data set [1] (setting [6]), the NOAEL turned out to be 80 mg/kg-day and the NOEL amounted to 80 mg/kg-day. Besides, the NOEL in data set [1] (subchronic, duration: 13 weeks, diet, M/F, Fischer 344, Deaths + Body Weight Changes: decrease + Food Consumption: decrease + Hematology: Ret increase, Hct decrease, Hgb decrease, RBC decrease, …) was less than 19.2 mg/kg-day.

Regarding `C=CCCCCCC` [1-Octene], the NOEL in data set [1] (subchronic, duration: 90 days, gavage, M/F, Urinalysis: Volume increase + Blood Chemistry: Cl decrease, CRE increase + Absolute Organ Weight: Kidney increase + Relative Organ Weight: …) is 50 mg/kg-day.

Take `O=C1C(Cl)=C(Cl)C(=O)N1Cc1ccccc1` [1-benzyl-3,4-dichloro-1H-pyrrole-2,5-dione]: the NOEL in data set [1] (short-term, duration: 28 days, gavage, M/F, Clinical Observation: Salivation + Body Weight Changes: Body weight gain decrease + Blood Chemistry: TG decrease, GLU decrease + Organ …) turned out to be 40 mg/kg-day.

Regarding `O=C1NC(=O)c2c(Cl)c(Cl)c(Cl)c(Cl)c21` [1H-Isoindole-1,3(2H)-dione, 4,5,6,7-tetrachloro-], in data set [1] (setting [7]), the LOEL was found to be 1000 mg/kg-day and the NOEL stood at 300 mg/kg-day. In data set [1] (setting [8]), this compound had an LOEL of 1000 mg/kg-day and an NOEL of 300 mg/kg-day.

As for `CC(C)=CCl` [2,2-Dimethylvinyl chloride], the NOEL in data set [1] (subchronic, duration: 13 weeks, gavage, M/F, Fischer 344, Deaths + Clinical Observation: Rough hair Inactivity Perianal wetness + Body Weight Changes: decrease + Histopathology: Liver/periportal-…) came out at 125 mg/kg-day.

For the compound `O=S(=O)(O)C(F)(F)F` [Trifluoromethanesulfonic acid], the lowest-observed-adverse-effect level (LOAEL) in data set [2] (developmental, duration: 54 days, M/F, generation: F1, F1: Developmental: Whole Body: Dams with Liveborn Pups + F1: Developmental: Whole Body: Lactation Index + F1: Developmental: Whole Body: …) stood at 300 mg/kg-day; in data set [2] (setting [10]), 300 mg/kg-day; in data set [2] (reproduction developmental, duration: 54 days, F, generation: P0, P0: Developmental: Uterus: Implantation + P0: Developmental: Uterus: Post-Implantation Loss + P0: Developmental: Uterus: Pre-Implantation …), 300 mg/kg-day; in data set [2] (setting [12]), 300 mg/kg-day. The NEL in data set [2] (reproduction developmental, duration: 4 weeks, M, Rjhan:SD, generation: P0, P0: Multi-organ: Histopathology, Unspecified + P0: Multi-organ: Organ Weights, Unspecified + P0: Whole Body: Body Weight, Absolute + P0: …) worked out at 1000 mg/kg-day; in data set [2] (setting [9]) it was 100 mg/kg-day; in data set [2] (reproduction developmental, duration: 6 weeks, F, Rjhan:SD, generation: P0, P0: Multi-organ: Histopathology, Unspecified + P0: Multi-organ: Organ Weights, Unspecified + P0: Ovary: Corpora Lutea + P0: Uterus: …) it was 1000 mg/kg-day; in data set [2] (setting [11]) it was 300 mg/kg-day; in data set [2] (reproduction developmental, duration: 6 weeks, M/F, Rjhan:SD, generation: F1, F1: Whole Body: Body Weight, Absolute + F1: Whole Body: Clinical Observations + F1: Whole Body: Dams with Liveborn Pups + F1: Whole Body: …) it was 1000 mg/kg-day; in data set [2] (short-term, duration: 28 days, F, Crj:CD, Adrenal: Adrenal Gland Weight, Absolute + Adrenal: Adrenal Gland Weight, Absolute, Recovery + Adrenal: Adrenal Gland Weight, Relative + …), 1000 mg/kg-day. The NEL in data set [2] (short-term, duration: 28 days, F, Crj:CD, Blood: Platelet Count (PLT) + Blood: Total Protein (TP), Blood + Forestomach: Boundary Ridge Protrusion + Stomach: Glandular Stomach, …) was determined as 200 mg/kg-day; in data set [2] (short-term, duration: 28 days, M, Crj:CD, Adrenal: Adrenal Gland Weight, Absolute + Adrenal: Adrenal Gland Weight, Absolute, Recovery + Adrenal: Adrenal Gland Weight, Relative + …), 1000 mg/kg-day; in data set [2] (short-term, duration: 28 days, M, Crj:CD, Forestomach: Boundary Ridge Protrusion), 200 mg/kg-day. The LEL in data set [2] (setting [9]) came to 300 mg/kg-day; in data set [2] (setting [11]), 1000 mg/kg-day; in data set [2] (short-term, duration: 28 days, F, Crj:CD, Blood: Platelet Count (PLT) + Blood: Total Protein (TP), Blood + Forestomach: Boundary Ridge Protrusion + Kidney: Pyelectasis + Stomach: …) it was 1000 mg/kg-day; in data set [2] (short-term, duration: 28 days, M, Crj:CD, Blood: Albumin/Globulin (A/G) Ratio, Recovery + Blood: Calcium (CA), Recovery, Blood + Blood: Chloride (CL), Recovery, Blood + Forestomach: …), 1000 mg/kg-day. Further, the NOAEL is 100 mg/kg-day in data set [2] (setting [10]); 1000 mg/kg-day in data set [2] (reproduction developmental, duration: 4 weeks, M, generation: P0, P0: Whole Body: Whole Body: Histopathology, Unspecified); 100 mg/kg-day in data set [2] (setting [12]).
